Results as given in PMC3954757, “Novel Potent Imidazo[1,2-a]pyridine-N-Glycinyl-Hydrazone Inhibitors of TNF-α Production: In Vitro and In Vivo Studies” (PLoS ONE, 2014).
Several values for one entry are separate records, joined by “and”; a condition that tells them apart may be missing. Equal entries are not always repeated.

Experiments:
[1] = Cell viability by MTT assay; type: cell-based, mouse; settings: mouse, peritoneal macrophages; 10 µM; MTT; compared to vehicle (DMSO)
Method: (§1) The peritoneal macrophage were obtained and plated as described above. The cells were incubated with the vehicle or compounds for 20 hours when was added 200 µL of RPMI medium containing 0.5 mg/mL MTT […] (3-(4,5-dimethylthiazol-2-yl)-2,5-diphenyltetrazolium bromide) followed by 4 hour of incubation at 37°C in a 5% CO2 atmosphere. After incubation supernatants were discarded and 200 µL DMSO (dimethylsulfoxide) were added to solubilize the MTT-formazan crystals. The optical density was measured in a microplate reader at 490 nm. The control groups consisted of cells with medium plus vehicle used to dissolve the substances and was considered as 100% of viable cells. Results are expressed as percentage of viable cells when compared with control groups.

[2] = test system: murine peritoneal macrophages; assay: Cell viability by MTT assay; type: cell-based, mouse; settings: for IC50: Mus musculus, Peritoneal macrophage, MTT cytotoxicity, concentration range 0.1–100 µM; for Selectivity Index (SI): SI = cytotoxicity IC50/anti-TNF-α IC50
Method: as §1

p38α MAPK = p38α MAPK (Homo sapiens, UniProt Q16539); assay: p38α MAPK activity, nonradioactive immunosorbent assay; type: biochemical
Method: Because the novel N-acylhydrazone derivatives 1 were designed based on the p38α MAPK inhibitor BIRB-796 (3), some of them were evaluated for their in vitro capacity to inhibit p38α MAPK activity at a concentration of 10 µM.
*This assay was performed as described by Goettert MR, Graeser, Laufer SA (2010) Optimization of a nonradioactive immunosorbent assay for p38 alpha mitogen-activated protein kinase activity. Anal Biochem 406: 233–234.

TNF-α production [3] = assay: LPS-induced TNF-α production in culture of mice peritoneal macrophage (ELISA); settings: Mus musculus; for inhibition at 10 µM: 24 h, read-out: TNF-α % inhibition at 10 µM; for IC50: read-out: TNF-α IC50
Method: BALBc mice received thyoglicollate 3% (1 mL/mice; i.p.) and 3 days later the peritoneal cavities were washed with RPMI 1640 culture medium (Sigma, USA, supplemented with 10% fetal bovine serum). The peritoneal macrophages were plated onto 96-wells plate (30.000 cells/well) for 1 hour at 37°C in a humidified 5% CO2 atmosphere. Then, macrophages were incubated with the vehicle or compounds and 1 hour later stimulated with LPS(100 ng/mL) for 24 hours when the supernatants were collected to evaluate TNF-α production by ELISA kit (B&D Bioscience, USA).

TNF-α production [4] = assay: Subcutaneous air pouch (SAP) model, TNF-α in exudate; type: in vivo, mice; settings: 1i oral pre-treatment, carrageenan 1% SAP
Description: Because compound 1i provided a better balance between the IC50 value for TNF-α production and cellular toxicity in vitro, we evaluated its effects in the subcutaneous air pouch (SAP) model, an in vivo model of inflammation and TNF production, [28].
(§2) Figure 4 Effect of compound 1i on TNF-α production. Twenty-four hours prior to carrageenan (1%) injection into the subcutaneous air pouch (SAP), animals were pretreated by oral administration with different doses of a solution of 1i. The results are presented as the mean ± S. D. (n = 6–10) of TNF-α (pg/mL). Statistical significance was calculated by ANOVA followed by Bonferroni’s test. * indicates p<0.005 for the comparison of 1i -treated mice with the vehicle-treated group; # indicates p<0.005 for the comparison of vehicle-treated mice with the PBS-treated group.
(§3) The experimental protocol was similar to that described by Romano and colleagues (1997) with several modifications described by Raymundo and colleagues (2011). The animals received a dorsal subcutaneous injection of sterile air (10 mL) on three alternate days to induce the SAP. On the sixth day, animals received a subcutaneous injection of sterile carrageenan suspension (1%; 1 mL). Mice were pre-treated with vehicle (Polysorbate 80), 1i (3, 10, 30 and 100 µmol/kg) or dexamethasone (1.5 µmol/kg, i.p.) 1 h before carrageenan injection into the SAP. The control group received an injection of sterile PBS (1 mL) into the SAP. Animals were sacrificed 24 h after carrageenan injection. The cavity was washed with 1 mL of sterile PBS. Exudates were collected, centrifuged at 11,000 rpm for 10 min at 4°C and TNF-α accumulated was quantified. The cytokines quantification was done by enzyme-linked immunosorbent assay (ELISA) according to the manufacturer’s instructions (B&D, USA). The results are expressed as pg/mL of each cytokine. Animals were sacrificed after an exposition to a saturated carbon dioxide atmosphere in an appropriate gas chamber.

IL-1β production = assay: Subcutaneous air pouch (SAP) model, IL-1β in exudate; type: in vivo, mice; settings: oral
Method: (§4) We also measured the levels of the cytokines interferon-γ (IFN- γ) and interleukin 1β (IL-1β).
as §2, with “5” for “4”, “IL-1β and IFN-γ” for “TNF-α”, “each cytokine (ng/mL).” for “TNF-α (pg/mL).”
as §3

IFN-γ production = assay: Subcutaneous air pouch (SAP) model, IFN-γ in exudate; type: in vivo, mice; settings: oral
Method: as §4
as §2, with “5” for “4”, “IL-1β and IFN-γ” for “TNF-α”, “each cytokine (ng/mL).” for “TNF-α (pg/mL).”
as §3

Chain of p38α MAPK (Q16539 whole entry): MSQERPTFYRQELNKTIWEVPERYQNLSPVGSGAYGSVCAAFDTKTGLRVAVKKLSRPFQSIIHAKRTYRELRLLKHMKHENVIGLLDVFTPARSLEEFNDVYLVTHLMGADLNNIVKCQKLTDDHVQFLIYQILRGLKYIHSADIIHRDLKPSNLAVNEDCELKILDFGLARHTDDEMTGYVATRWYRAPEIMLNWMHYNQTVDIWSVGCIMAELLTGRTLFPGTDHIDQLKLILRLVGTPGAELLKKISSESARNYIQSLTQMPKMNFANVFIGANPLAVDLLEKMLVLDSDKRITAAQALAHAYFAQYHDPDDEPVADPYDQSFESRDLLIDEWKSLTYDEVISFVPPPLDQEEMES

Row | Structure (SMILES) | viability at 20 h, 10 µM [1] | IC50 [2] | Selectivity Index (SI) [2] | inhibition at 10 µM (p38α MAPK) | melting point | inhibition at 10 µM (TNF-α production [3]) | IC50 (TNF-α production [3]) | further results
1 | O=C(CNc1c(-c2ccccc2)nc2ccccn12)N/N=C/c1cccc2ccccc12 [Compound 1k, (E)-N’-(naphthalen-1-ylmethylene)-2-(2-phenylimidazo[1,2-a]pyridin-3-ylami-no)acetohydrazide] | 83.2% | 23.5 µM | 23.7 | 17.2% | 208 to 210 °C | 75.8% | 0.99 µM | 
2 | O=C(CNc1c(-c2ccccc2)nc2ccccn12)N/N=C/c1ccccc1 [Compound 1f, (E)-N’-benzylidene-2-(2-phenylimidazo[1,2-a]pyridin-3-ylamino)acetohydrazide] | 100% |  |  |  | 138 to 141 °C | 29.3% |  | 
3 | CC(C)(C)c1cc(NCC(=O)N/N=C/c2ccc(OCCN3CCOCC3)c3ccccc23)n(-c2ccccc2)n1 [LASSBio-1504 (2), reference compound] | 61.5% | 10.3 µM | 2.8 |  |  | 96.9% | 3.6 µM | 
4 | O=C(CNc1c(-c2ccccc2)nc2ccccn12)N/N=C/c1ccc(OCCN2CCOCC2)cc1 [Compound 1c, (E)-N’-(4-(2-morpholinoethoxy)benzylidene)-2-(2-phenylimidazo[1,2-a]pyridin-3-ylamino)acetohydrazide] | 100% |  |  | 22.6% | 169 to 171 °C and 167 to 169 °C | 18.3% |  | 
5 | C[S+]([O-])c1ccc(-c2nc(-c3ccncc3)c(-c3ccc(F)cc3)[nH]2)cc1 (stereo not drawn) [SB-203580, reference compound] | 44.3% |  |  |  |  | 90% |  | 
6 | CC(C)(C)c1nc2ccccn2c1NCC(=O)N/N=C/c1ccccc1 [Compound 1g, (E)-N’-benzylidene-2-(2-tert-butylimidazo[1,2-a]pyridin-3-ylamino)acetohydrazide] | 100% |  |  |  | 230 to 232 °C | 5.6% |  | 
7 | O=C(CNc1c(-c2ccccc2)nc2ccccn12)N/N=C/c1ccc(O)cc1 [Compound 1d, (E)-N’-(4-hydroxybenzylidene)-2-(2-phenylimidazo[1,2-a]pyridin-3-ylamino) acetohydrazide] | 100% |  |  |  | 273 to 275 °C | 56.7% | 3.67 µM | 
8 | CC(C)(C)c1nc2ccccn2c1NCC(=O)N/N=C/c1ccc(Cl)cc1 [Compound 1i, (E)-2-(2-tert-butylimidazo[1,2-a]pyridin-3-ylamino)-N’-(4-chlorobenzylidene) acetohydrazide] | 73.3% | 21.7 µM | 103.3 |  | 232 to 234 °C | 78% | 0.21 µM | reduction of TNF-α production (TNF-α production [4]; 3 µmol/kg): 96.8%; reduction of TNF-α production (TNF-α production [4]; 10 µmol/kg): 90.6%; reduction of TNF-α production (TNF-α production [4]; 30 µmol/kg): 97.3%; reduction of TNF-α production (TNF-α production [4]; 100 µmol/kg): 95.31%; reduction in IL-1β (IL-1β production; 3 µmol/kg): 81%; reduction in IL-1β (IL-1β production; 10 µmol/kg): 69.5%; reduction in IL-1β (IL-1β production; 30 µmol/kg): 74.7%; reduction in IL-1β (IL-1β production; 100 µmol/kg): 65.7%; inhibition of IFN-γ (IFN-γ production; 3 µmol/kg): 83.7%; inhibition of IFN-γ (IFN-γ production; 10 µmol/kg): 83%; inhibition of IFN-γ (IFN-γ production; 30 µmol/kg): 82.8%; inhibition of IFN-γ (IFN-γ production; 100 µmol/kg): 82.4%
9 | O=C(CNc1c(-c2ccccc2)nc2ccccn12)N/N=C/c1ccc(O)c2ccccc12 [Compound 1j, (E)-N’-((4-hydroxynaphthalen-1-yl)methylene)-2-(2-phenylimidazo[1,2-a]pyridin-3-ylamino)acetohydrazide] | 40% | 10.4 µM | 33.5 |  | > 300 °C | 90.8% | 0.31 µM | 
10 | O=C(CNc1c(-c2ccccc2)nc2ccccn12)N/N=C/c1ccc(Cl)cc1 [Compound 1e, (E)-N’-(4-chlorobenzylidene)-2-(2-phenylimidazo[1,2-a]pyridin-3-ylamino) acetohydrazide] | 100% |  |  |  | 122 to 124 °C and 120 to 122 °C | 53.8% | 3.05 µM | 
11 | O=C(CNc1c(-c2ccccc2)nc2ccccn12)N/N=C/c1ccc(OCCN2CCOCC2)c2ccccc12 [Compound 1b, (E)-N’-((4-(2-morpholinoethoxy)naphthalen-1-yl)methylene)-2-(2-phenylimidazo [1,2-a]pyridin-3-ylamino)acetohydrazide] | 78.4% | 14.7 µM | 43.2 | 6.5% | 105 to 108 °C | 77.3% | 0.34 µM | 
12 | CC(C)(C)c1nc2ccccn2c1NCC(=O)N/N=C/c1ccc(OCCN2CCOCC2)cc1 [Compound 1h, (E)-2-(2-tert-butylimidazo[1,2-a]pyridin-3-ylamino)-N’-(4-(2-morpholinoethoxy)benzylidene)acetohydrazide] | 100% |  |  |  |  | 2.8% |  | 
13 | CC(C)(C)c1nc2ccccn2c1NCC(=O)N/N=C/c1ccc(OCCN2CCOCC2)c2ccccc12 [Compound 1a, (E)-2-(2-tert-butylimidazo[1,2-a]pyridin-3-ylamino)-N’-((4-(2-morpholinoethoxy)naphthalen-1-yl)methylene)acetohydrazide] | 20.1% | 6.9 µM | 11.1 | 11.8% | 135 to 137 °C | 95.3% | 0.62 µM | 
